Assay results reported in PubChem BioAssay AID1259407 (Chemical Carcinogenesis Research Information System (CCRIS), 2018).
Activity calls are given as the source filed them. The rule behind the calls is not given here.

Tested on: CCRIS mutagenicity, Ames/micronucleus/aberration tests
Assay: CCRIS mutagenicity studies

In the case of C1COCCO1, the mutagenic call (End Point: IN VITRO CHROMOSOMAL ABERRATIONS, Test System: CHINESE HAMSTER OVARY CELLS, Metabolic Activation: NONE) is reported as “inactive; negative”, the mutagenic call (End Point: IN VITRO CHROMOSOMAL ABERRATIONS, Test System: CHINESE HAMSTER OVARY CELLS, Metabolic Activation: RAT, LIVER, S-9, AROCLOR 1254) is reported as “inactive; negative” and the mutagenic call (End Point: IN VIVO MICRONUCLEUS, Test System: BONE MARROW ERYTHROCYTES, Species: MOUSE, Strain/Sex: CD-1/MALE, Route: ORAL (GAVAGE)) is reported as “active; positive”. For the same molecule, the mutagenic call (End Point: IN VIVO MICRONUCLEUS, Test System: HEPATOCYTES (BRDU-LABELING), Species: MOUSE, Strain/Sex: CD-1/MALE, Route: ORAL (GAVAGE)) was “active; positive”, the mutagenic call (Test System: AMES SALMONELLA TYPHIMURIUM, Strain/Indicator: TA98, Metabolic Activation: HAMSTER LIVER S-9, PHENOBARBITAL AND BETA-NAPHTHOFLAVONE (10%), Method: PREINCUBATION) was “inactive; negative” and the mutagenic call (Test System: AMES SALMONELLA TYPHIMURIUM, Strain/Indicator: TA98, Metabolic Activation: HAMSTER LIVER S-9, PHENOBARBITAL AND BETA-NAPHTHOFLAVONE (30%), Method: PREINCUBATION) was “inactive; negative”. For the same molecule, the mutagenic call (Test System: AMES SALMONELLA TYPHIMURIUM, Strain/Indicator: TA98, Metabolic Activation: NONE, Method: GAS EXPOSURE) was “inactive; negative”, the mutagenic call (Test System: AMES SALMONELLA TYPHIMURIUM, Strain/Indicator: TA98, Metabolic Activation: NONE, Method: PREINCUBATION) was “inactive; negative” and the mutagenic call (Test System: AMES SALMONELLA TYPHIMURIUM, Strain/Indicator: TA98, Metabolic Activation: NONE, Method: STANDARD PLATE) was “inactive; negative”. The mutagenic call (Test System: AMES SALMONELLA TYPHIMURIUM, Strain/Indicator: TA98, Metabolic Activation: RAT LIVER S-9, PHENOBARBITAL AND 5,6-BENZOFLAVONE, Method: PREINCUBATION) was “inactive; negative”, the mutagenic call (Test System: AMES SALMONELLA TYPHIMURIUM, Strain/Indicator: TA98, Metabolic Activation: RAT LIVER S-9, PHENOBARBITAL AND 5,6-BENZOFLAVONE, Method: STANDARD PLATE) was “inactive; negative” and the mutagenic call (Test System: AMES SALMONELLA TYPHIMURIUM, Strain/Indicator: TA98, Metabolic Activation: RAT LIVER S-9, PHENOBARBITAL AND BETA-NAPHTHOFLAVONE (10%), Method: PREINCUBATION) was “inactive; negative”. The mutagenic call (Test System: AMES SALMONELLA TYPHIMURIUM, Strain/Indicator: TA98, Metabolic Activation: RAT LIVER S-9, PHENOBARBITAL AND BETA-NAPHTHOFLAVONE (30%), Method: PREINCUBATION) was “inactive; negative”, the mutagenic call (Test System: AMES SALMONELLA TYPHIMURIUM, Strain/Indicator: TA98, Metabolic Activation: RAT LIVER S-9, PHENOBARBITAL AND BETA-NAPHTHOFLAVONE, Method: GAS EXPOSURE) was “inactive; negative” and the mutagenic call (Test System: AMES SALMONELLA TYPHIMURIUM, Strain/Indicator: TA100, Metabolic Activation: HAMSTER LIVER S-9, PHENOBARBITAL AND BETA-NAPHTHOFLAVONE (10%), Method: PREINCUBATION) was “inactive; negative”. For the same molecule, the mutagenic call (Test System: AMES SALMONELLA TYPHIMURIUM, Strain/Indicator: TA100, Metabolic Activation: HAMSTER LIVER S-9, PHENOBARBITAL AND BETA-NAPHTHOFLAVONE (30%), Method: PREINCUBATION) was “inactive; negative”, the mutagenic call (Test System: AMES SALMONELLA TYPHIMURIUM, Strain/Indicator: TA100, Metabolic Activation: NONE, Method: GAS EXPOSURE) was “inactive; negative” and the mutagenic call (Test System: AMES SALMONELLA TYPHIMURIUM, Strain/Indicator: TA100, Metabolic Activation: NONE, Method: PREINCUBATION) was “inactive; negative”. For the same molecule, the mutagenic call (Test System: AMES SALMONELLA TYPHIMURIUM, Strain/Indicator: TA100, Metabolic Activation: NONE, Method: STANDARD PLATE) was “inactive; negative”, the mutagenic call (Test System: AMES SALMONELLA TYPHIMURIUM, Strain/Indicator: TA100, Metabolic Activation: RAT LIVER S-9, PHENOBARBITAL AND 5,6-BENZOFLAVONE, Method: PREINCUBATION) was “inactive; negative” and the mutagenic call (Test System: AMES SALMONELLA TYPHIMURIUM, Strain/Indicator: TA100, Metabolic Activation: RAT LIVER S-9, PHENOBARBITAL AND 5,6-BENZOFLAVONE, Method: STANDARD PLATE) was “inactive; negative”. The mutagenic call (Test System: AMES SALMONELLA TYPHIMURIUM, Strain/Indicator: TA100, Metabolic Activation: RAT LIVER S-9, PHENOBARBITAL AND BETA-NAPHTHOFLAVONE (10%), Method: PREINCUBATION) was “inactive; negative”, the mutagenic call (Test System: AMES SALMONELLA TYPHIMURIUM, Strain/Indicator: TA100, Metabolic Activation: RAT LIVER S-9, PHENOBARBITAL AND BETA-NAPHTHOFLAVONE (30%), Method: PREINCUBATION) was “inactive; negative” and the mutagenic call (Test System: AMES SALMONELLA TYPHIMURIUM, Strain/Indicator: TA100, Metabolic Activation: RAT LIVER S-9, PHENOBARBITAL AND BETA-NAPHTHOFLAVONE, Method: GAS EXPOSURE) was “inactive; negative”. The mutagenic call (Test System: AMES SALMONELLA TYPHIMURIUM, Strain/Indicator: TA1535, Metabolic Activation: HAMSTER LIVER S-9, PHENOBARBITAL AND BETA-NAPHTHOFLAVONE (10%), Method: PREINCUBATION) was “inactive; negative”, the mutagenic call (Test System: AMES SALMONELLA TYPHIMURIUM, Strain/Indicator: TA1535, Metabolic Activation: HAMSTER LIVER S-9, PHENOBARBITAL AND BETA-NAPHTHOFLAVONE (30%), Method: PREINCUBATION) was “inactive; negative” and the mutagenic call (Test System: AMES SALMONELLA TYPHIMURIUM, Strain/Indicator: TA1535, Metabolic Activation: NONE, Method: GAS EXPOSURE) was “inactive; negative”. The mutagenic call (Test System: AMES SALMONELLA TYPHIMURIUM, Strain/Indicator: TA1535, Metabolic Activation: NONE, Method: PREINCUBATION) was “inactive; negative”, the mutagenic call (Test System: AMES SALMONELLA TYPHIMURIUM, Strain/Indicator: TA1535, Metabolic Activation: NONE, Method: STANDARD PLATE) was “inactive; negative” and the mutagenic call (Test System: AMES SALMONELLA TYPHIMURIUM, Strain/Indicator: TA1535, Metabolic Activation: RAT LIVER S-9, PHENOBARBITAL AND 5,6-BENZOFLAVONE, Method: PREINCUBATION) was “inactive; negative”. The mutagenic call (Test System: AMES SALMONELLA TYPHIMURIUM, Strain/Indicator: TA1535, Metabolic Activation: RAT LIVER S-9, PHENOBARBITAL AND 5,6-BENZOFLAVONE, Method: STANDARD PLATE) was “inactive; negative” and the mutagenic call (Test System: AMES SALMONELLA TYPHIMURIUM, Strain/Indicator: TA1535, Metabolic Activation: RAT LIVER S-9, PHENOBARBITAL AND BETA-NAPHTHOFLAVONE (10%), Method: PREINCUBATION) was “inactive; negative”.
